Test results taken from US20130196986A1 (priority 2010, published 2013).

Biological target: T1, P2X7 receptor (Homo sapiens, UniProt Q99572)
T1 construct: stably expressing the full length P2X7 receptor; expressed in transfected cells
T1 sequence (Q99572 1-595): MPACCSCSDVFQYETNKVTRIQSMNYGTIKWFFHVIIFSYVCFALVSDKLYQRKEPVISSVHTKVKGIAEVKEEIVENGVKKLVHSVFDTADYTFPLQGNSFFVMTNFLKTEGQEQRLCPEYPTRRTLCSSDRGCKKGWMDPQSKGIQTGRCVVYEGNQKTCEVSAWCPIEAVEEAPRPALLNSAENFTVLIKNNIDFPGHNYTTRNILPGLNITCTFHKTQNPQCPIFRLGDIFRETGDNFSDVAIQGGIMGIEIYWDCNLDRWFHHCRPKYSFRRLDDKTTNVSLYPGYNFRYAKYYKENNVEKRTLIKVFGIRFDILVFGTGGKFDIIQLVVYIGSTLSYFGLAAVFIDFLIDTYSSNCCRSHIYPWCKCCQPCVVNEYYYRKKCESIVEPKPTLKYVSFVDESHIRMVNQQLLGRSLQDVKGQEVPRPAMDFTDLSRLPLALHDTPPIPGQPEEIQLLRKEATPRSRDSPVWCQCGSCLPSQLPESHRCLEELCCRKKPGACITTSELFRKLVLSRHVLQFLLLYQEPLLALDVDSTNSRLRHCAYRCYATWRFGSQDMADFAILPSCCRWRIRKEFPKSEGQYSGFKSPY
Assay: Ca++ flux assay (FLIPR) in P2X7-HEK-293 cell line stably expressing the full length P2X7 receptor, Bz-ATP activation
Format: cell-based
Conditions: P2X7-HEK-293 cells; agonist Bz-ATP; fluorescence as total area over 90 seconds; read-out: P2X7 Ca Flux hu IC50
Procedure: The ability of Triazolopyrazinone Compounds to inhibit P2X7 function can be determined in Ca^++ flux assay using a P2X7-HEK-293 cell line stably expressing the full length P2X7 receptor. The assay protocol is as described in Cheewatrakoolpong et al., Biochem. Biophys. Res. Commun. 332:17-27 (2005) with minor modification, and is as summarized hereinafter. Briefly, cells were plated in poly-D-lysine-coated wells, and incubated at 37° C. for 24 hours. Cells were then incubated for 1 hour with a loading buffer which contains a dye sensitive to changes in Ca^++ concentration (lx Calcium Plus no wash dye from Molecular Devices, Sunnyvale, Calif.). The test compounds were added to the wells in the dye loading step. Plates containing the wells were transferred to a Fluorometric Imaging Plate Reader (Molecular Devices, Sunnyvale, Calif.). The cells were activated by the addition of the P2X7 receptor agonist 2′(3) —O-(4-benzoylbenzoyl)adenosine 5′-triphosphate (Bz-ATP from Sigma-Aldrich, St. Louis, Mo.), and the fluorescence was monitored for 90 seconds. The fluorescent signal was determined as the total area over the 90 second run time. Using this protocol, representative Triazolopyrazinone Compounds, compounds 1471 were tested. Tables 3 to 6 show the concentration at which 50% of the maximum response in the Ca^++ was inhibited (IC50) for each of the test compounds.

| Compound | IC50 |
| --- | --- |
| Cc1c(-n2ccn3c(SCc4nc5ccccc5n4C)nnc3c2=O)cccc1C(F)(F)F [Compound 3, 3-((1-methyl-1H-benzo[d]imidazol-2-yl)methylthio)-7-(2-methyl-3-(trifluoromethyl)phenyl)-[1,2,4]triazolo[4,3-a]pyrazin-8(7H)-one] | 5670 nM |
| Cc1c(-n2ccn3c(SCc4cccc5c4-c4ccccc4C5)nnc3c2=O)cccc1C(F)(F)F [Compound 4, 3-((9H-fluoren-4-yl)methylthio)-7-(2-methyl-3-(trifluoromethyl)phenyl)-[1,2,4]triazolo[4,3-a]pyrazin-8(7H)-one] | 264 nM |
| Cc1c(-n2ccn3c(SCc4ccccc4-c4ccc(C(F)(F)F)cc4)nnc3c2=O)cccc1C(F)(F)F [Compound 8, 7-(2-methyl-3-(trifluoromethyl)phenyl)-3-((4′-(trifluoromethyl)biphenyl-2-yl)rnethylthio)-[1,2,4]triazolo[4,3-a]pyrazin-8(7H)-one] | 905 nM |
| Cc1c(-n2ccn3c(SCc4ccccc4-c4ccc(Cl)cc4)nnc3c2=O)cccc1C(F)(F)F [Compound 9, 3-((4′-chlorobiphenyl-2-yl)nrethylthio)-7-(2-methyl-3-(trifluoromethyl)phenyl)-[1,2,4]triazolo[4,3-a]pyrazin-8(7H)-one] | 102 nM |
| Cc1c(-n2ccn3c(SCc4ccccc4I)nnc3c2=O)cccc1C(F)(F)F [Compound 11] | 106 nM |
| Cc1c(-n2ccn3c(SCc4ccccc4Br)nnc3c2=O)cccc1C(F)(F)F [Compound 12, 3-(2-bromobenzylthio)-7-(2-methyl-3-(trifluoromethyl)phenyl)-[1,2,4]triazolo[4,3-a]pyrazin-8(7H)-one] | 107 nM |
| Cc1c(-n2ccn3c(SCc4cccc(F)c4Cl)nnc3c2=O)cccc1C(F)(F)F [Compound 13, 3-(2-chloro-3-fluorobenzylthio)-7-(2-methyl-3-(trifluoromethyl)phenyl)-[1,2,4]triazolo[4,3-a]pyrazin-8(7H)-one] | 130 nM |
| Cc1c(Cl)cccc1-n1ccn2c(SCc3cccc(F)c3Cl)nnc2c1=O [Compound 16, 7-(3-chloro-2-methylphenyl)-3-(2-chloro-3-fluorobenzylthio)-[1,2,4]triazolo[4,3-a]pyrazin-8(7H)-one] | 286 nM |
| Cc1onc(-c2ccccc2)c1CSc1nnc2c(=O)n(-c3cccc(C(F)(F)F)c3C)ccn12 [Compound 17, 7-(2-methyl-3-(trifluoromethyl)phenyl)-3-((5-methyl-3-phenylisoxazo1-4-yl)methylthio)-[1,2,4]triazolo[4,3-a]pyrazin-8(7H)-one] | 543 nM |
| Cc1c(Cl)cccc1-n1ccn2c(SCc3ccccc3C(C)(C)C)nnc2c1=O [Compound 19, 3-(2-tent-butylbenzylthio)-7-(3-chloro-2-methylphenyl)-[1,2,4]triazolo[4,3-a]pyrazin-8(7H)-one] | 165 nM |
| Cc1c(-n2ccn3c(SCc4ccccc4Oc4ccccc4)nnc3c2=O)cccc1C(F)(F)F [Compound 20, 7-(2-methyl-3-(trifluoromethyl)phenyl)-3-(2-phenoxybenzylthio)-[1,2,4]triazolo[4,3-a]pyrazin-8(7H)-one] | 144 nM |
| [2H]c1c([2H])c([2H])c(CSc2nnc3c(=O)n(-c4cccc(C(F)(F)F)c4C)ccn23)c([2H])c1[2H] [Compound 21, deuterated-7-[2-methyl-3-(trifluoromethyl)phenyl]-3-[(phenyl-(d5)-methy)thio]-1,2,4-triazolo[4,3-a]pyrazin-8(7H)-one] | 84.9 nM |
| Cc1c(-n2ccn3c(SC(C(=O)c4ccccc4)c4ccccc4)nnc3c2=O)cccc1C(F)(F)F (stereo not shown) [Compound 22, 7-(2-methyl-3-(trifluoromethyl)phenyl)-3-(2-oxo-1,2-diphenylethylthio)-[1,2,4]triazolo[4,3-a]pyrazin-8(7H)-one] | 1450 nM |
| Cc1c(Cl)cccc1-n1ccn2c(SCc3ccccc3B(O)O)nnc2c1=O [Compound 24, 2-((7-(3-chloro-2-methylphenyl)-8-oxo-7,8-dihydro-[1,2,4]triazolo[4,3-a]pyrazin-3-ylthio)rnethyl)phenylboronic acid] | 1010 nM |
| O=c1c2nnc(SCc3cccc4ccccc34)n2ccn1-c1cccc(C(F)(F)F)c1Cl [Compound 27, 7-(2-chloro-3-(trifluoromethyl)phenyl)-3-(naphthalen-1-ylmethylthio)-[1,2,4]triazolo[4,3-a]pyrazin-8(7H)-one] | 166 nM |
| Cc1c(-n2ccn3c(SCc4ccccc4Cl)nnc3c2=O)cccc1C(F)(F)F [Compound 28, 3-(2-chlorobenzylthio)-7-(2-methyl-3-(trifluoromethyl)phenyl)-[1,2,4]triazolo[4,3-a]pyrazin-8(7H)-one] | 148 nM |
| O=c1c2nnc(SCc3ccccc3)n2ccn1-c1cccc2ccccc12 [Compound 29, 3-(benzylthio)-7-(naphthalen-1-yl)-[1,2,4]-triazolo[4,3-a]pyrazin-8(7H)-one] | 3630 nM |

These reach a lower IC50. Values come first.

| IC50 | Compound |
| --- | --- |
| 30.4 nM | Cc1cccc(-c2ccccc2CSc2nnc3c(=O)n(-c4cccc(C(F)(F)F)c4C)ccn23)c1 [Compound 5, 7-(2-methyl-3-(trifluorornethyl)phenyl)-3-((3'-methylbiphenyl-2-yl)methylthio)-[1,2,4]triazolo[4,3-a]pyrazin-8(7H)-one] |
| 37 nM | Cc1ccc(-c2ccccc2CSc2nnc3c(=O)n(-c4cccc(C(F)(F)F)c4C)ccn23)s1 [Compound 6, 7-(2-methyl-3-(trifluoromethyl)phenyl)-3-(2-(5-methylthiophen-2-yl)benzylthio)-[1,2,4]triazolo[4,3-a]pyrazin-8(7H)-one] |
| 66.7 nM | Cc1ccc(-c2ccccc2CSc2nnc3c(=O)n(-c4cccc(C(F)(F)F)c4C)ccn23)cc1 [Compound 7, 7-(2-methyl-3-(trifluoromethyl)phenyl)-3-((4′-methylbiphenyl-2-yl)methylthio)-[1,2,4]triazolo[4,3-a]pyrazin-8(7H)-one] |
| 42.6 nM | Cc1c(-n2ccn3c(SCc4ccccc4-c4ccc(F)cc4)nnc3c2=O)cccc1C(F)(F)F [Compound 10, 3-((4′-fluorobiphenyl-2-yl)rnethylthio)-7-(2-methyl-3-(trifluoromethyl)phenyl)-[1,2,4]triazolo[4,3-a]pyrazin-8(7H)-one] |
| 38.1 nM | Cc1c(-n2ccn3c(SCc4ccsc4)nnc3c2=O)cccc1C(F)(F)F [Compound 14, 7-(2-methyl-3-(trifluoromethyl)phenyl)-3-(thiophen-3-ylmethylthio)-[1,2,4]triazolo[4,3-a]pyrazin-8(7H)-one] |
| 30.4 nM | Cc1c(-n2ccn3c(SCc4cccs4)nnc3c2=O)cccc1C(F)(F)F [Compound 15, 7-(2-methyl-3-(trifluoromethyl)phenyl)-3-(thiophen-2-ylmethylthio)-[1,2,4]triazolo[4,3-a]pyrazin-8(7H)-one] |
| 56.9 nM | Cc1c(-n2ccn3c(SCc4ccccc4C(C)(C)C)nnc3c2=O)cccc1C(F)(F)F [Compound 18, 3-(2-tert-butylbenzylthio)-7-(2-methyl-3-(trifluoromethyl)phenyl)-[1,2,4]triazolo[4,3-a]pyrazin-8(7H)-one] |
| 40.4 nM | Cc1c(-n2ccn3c(SCc4ccccc4-c4cccs4)nnc3c2=O)cccc1C(F)(F)F [Compound 23, 7-(2-methyl-3-(trifluoromethyl)phenyl)-3-(2-(thiophen-2-yl)benzylthio)-[1,2,4]triazolo[4,3-a]pyrazin-8(7H)-one] |
| 41.7 nM | O=c1c2nnc(SC(c3ccccc3)c3ccccc3)n2ccn1-c1cccc(C(F)(F)F)c1Cl [Compound 25, 3-(benzhydrylthio)-7-(2-chloro-3-(trifluoromethyl)phenyl)-[1,2,4]triazolo[4,3-a]pyrazin-8(7H)-one] |
| 47 nM | O=c1c2nnc(SC3c4ccccc4-c4ccccc43)n2ccn1-c1cccc(C(F)(F)F)c1Cl [Compound 26, 3-(9H-fluoren-9-ylthio)-7-(2-chloro-3-(trifluoromethyl)phenyl)-[1,2,4]triazolo[4,3-a]pyrazin-8(7H)-one] |
| 67 nM | Cc1c(Cl)cccc1-n1ccn2c(SCc3ccccc3Oc3ccccc3)nnc2c1=O [Compound 30, 7-(3-chloro-2-methylphenyl)-3-(2-phenoxybenzylthio)-[1,2,4]triazolo[4,3-a]pyrazin-8(7H)-one] |
